# Reference: patent US20260248787A9, “MEDICAMENT FOR TREATING CANCER COMPRISING OPTICALLY ACTIVE AZABICYCLO RING DERIVATIVE” (Sumitomo Pharma Co., Ltd., priority 2023, published 2026)
# Columns and labels:
# [1] = test system: HOXA9, MEIS1, PBX3, CD11b gene expression; assay: Phase 1/2 clinical study, pharmacodynamic gene expression biomarkers in bone marrow aspirate; type: in vivo, human
# From the text: All dose levels and time points are combined.
# (2) FIGS. 6A and 6B show average of the maximum percentage change of gene expression of leukemic (HOXA9, MEIS1, PBX3) and differentiation (CD11b) biomarkers in bone marrow aspirate of patients from all dose levels, for whom a baseline and post-baseline sample were collected.
# [2] = Phase 1/2 clinical study, plasma pharmacokinetic evaluation; type: in vivo; details: human, oral, 140 mg, Cycle 1 Day 1, 140 mg BID Arm B (with azole), N=2, mean
# [3] = test system: acute leukemia with MLLr or NPM1m; assay: Phase 1/2 clinical study, clinical activity (responses by ELN 2017); type: in vivo, human
# [4] = patients with MLLr or NPM1m AML, all dose levels and time points (FIG. 5)
# [5] = patients with target mutations, all dose levels (FIGS. 6A, 6B)
# [6] = patients, notable with MLLr or NPM1m (Example 3)
# [7] = MLLr + NPM1m, ≥140 mg BID, n=21
structure (smiles),measurement,setting,value
"C=C1C[C@@H]2CC[C@H]1[C@@H](C(=O)N1CCC3(CC1)CN(c1ncncc1Oc1ccc(F)cc1C(=O)N(C(C)C)C(C)C)C3)N2 [the present compound, 5-fluoro-2-[(4-{7-[(1S,3S,4R)-5-methylidene-2-azabicyclo[2.2.2]octane-3-carbonyl]-2,7-diazaspiro[3.5]nonan-2-yl}pyrimidin-5-yl)oxy]-N,N-di(propan-2-yl)benzamide]",gene expression of CD11b in bone marrow aspirate,[1]; [4],increases
same,"gene expression of HOXA9, PBX3 and MEIS1 in bone marrow aspirate",[1]; [4],Clear decreases
same,gene expression of CD11b in bone marrow aspirate,[1]; [5],increases
same,"gene expression of HOXA9, PBX3 and MEIS1 in bone marrow aspirate",[1]; [5],Clear decreases
same,change in CD11b,[1]; [6],increases
same,"change in HOXA9, PBX3 and MEIS1",[1]; [6],decreases
same,Cmax,[2],3100 ng/mL
same,responders per ELN 2017,"[3]; 43 enrolled, MLLr or NPM1m, 19 evaluable",5 responders
same,objective response rate (ORR) by ELN 2017 (CR+CRi+MLFS),"[3]; MLLr (20 AML, 2 ALL), ≥140 mg BID, no prior menin inhibitor (13/22)",59.1%
same,CR + CRh (ELN 2017),[3]; [7],5 (24%) n (%)
same,Composite CR (ELN 2017),[3]; [7],7 (33%) n (%)
same,Objective Response Rate (ELN 2017),[3]; [7],12 (57%) n (%)
same,CR+CRh,"[3]; MLLr or NPM1m, all dose levels 40-300 mg BID, prior menin inhibitor naïve, finished 1 cycle (6/38)",16%
same,ORR,"[3]; MLLr or NPM1m, all dose levels 40-300 mg BID, prior menin inhibitor naïve, finished 1 cycle (12/38)",32%
same,CR+CRh rate,"[3]; MLLr or NPM1m, ≥140 mg BID, prior menin inhibitor naïve, finished 1 cycle (5/22)",23%
same,ORR (CR+CRi+MLFS),"[3]; MLLr or NPM1m, ≥140 mg BID, prior menin inhibitor naïve, finished 1 cycle (10/22)",45%
same,CR+CRh,"[3]; MLLr, ≥140 mg BID (2/12 patients)",17%
same,Objective Response Rate (ORR; CR+CRh+CRi+MLFS),"[3]; MLLr, ≥140 mg BID (8/12 patients)",67%
same,CR + CRh (ELN 2017),"[3]; MLLr, ≥140 mg BID, n=12",2 (17%) n (%)
same,Composite CR (ELN 2017),"[3]; MLLr, ≥140 mg BID, n=12",5 (42%) n (%)
same,Objective Response Rate (ELN 2017),"[3]; MLLr, ≥140 mg BID, n=12",8 (67%) n (%)
same,CR+CRh,"[3]; MLLr, ≥140 mg BID, no prior menin inhibitor (5/22)",22.7%
same,CR+CRh,"[3]; NPM1m AML, ≥140 mg BID, no prior menin inhibitor (3/13)",23.1%
same,ORR,"[3]; NPM1m AML, ≥140 mg BID, no prior menin inhibitor (7/13)",53.8%
same,CR+CRh,"[3]; NPM1m, ≥140 mg BID (3/9 patients)",33%
same,ORR,"[3]; NPM1m, ≥140 mg BID (4/9 patients)",44%
same,CR + CRh (ELN 2017),"[3]; NPM1m, ≥140 mg BID, n=9",3 (33%) n (%)
same,Composite CR (ELN 2017),"[3]; NPM1m, ≥140 mg BID, n=9",3 (33%) n (%)
same,Objective Response Rate (ELN 2017),"[3]; NPM1m, ≥140 mg BID, n=9",4 (44%) n (%)
same,response achieved (ELN 2017),"[3]; a patient with MLLr, 120 mg BID Arm A",MLFS
same,additional patients with MLLr with response per ELN2017 (CRh/CRi and MLFS),[3]; lower dose levels,Two
same,median time to CR+CRh,"[3]; overall, ≥140 mg BID",1.0 months
same,median time to objective response,"[3]; overall, ≥140 mg BID",1.0 months
same,Bone marrow blast reduction,[3]; patients with MLLr or NPM1m (FIG. 8),observed
